# Laboratory results taken from patent US9856218B2, “Inhibitors of PRMT5 and methods of their use” (Ohio State Innovation Foundation, priority 2013, dated 2018).
# Read-outs that look alike come from different tables or passages of the source.
# What was measured:
# multiple cell lines = assay: Proliferation of multiple cell lines (FIG. 59); type: cell-based; settings: FIG. 59A-E
# Protocol: Proliferation of multiple cell lines was evaluated for CMPD 5, CMPD 7, HLCL61, HLCL-65, and HLCL-66 (FIG. 59A-E).
# JeKo cells = assay: Immunofluorescence staining of methylated H4(Me2)R3 / H3(Me2)R8; type: cell-based; settings: FIG. 2F
# Protocol: DAPI was used to stain nuclei.
# Immunofluorescence assays for screening for presence of type II PRMT epigenetic marks (H4(SMe2)R3) compared to type I mark (H4(AMe2)R3). Cell lines were incubated for 24 hours with all the 14 compounds. After 24 hours, cells were fixed, blocked and treated with mAbs specific for symmetric dimethylation and asymmetric dimethylation of histone H4R3 respectively. Alexa Fluor 488 conjugated 2nd Ab was used for the staining of histone marks (green). Draq5 was used to stain nuclei (blue).
# [1] = test system: PRMT5 expression and phosphorylation levels in AML cells; assay: PRMT5 expression and phosphorylation after FLT3 inhibition; type: cell-based; settings: FIG. 38C
# Protocol: Whole cell lysates were prepared by suspending cell pellets in RIPA buffer for 20 min (1% NP-40, 0.1% SDS, 150 mM NaCl, 50 mM Tris, pH 8.0), then supplemented with 1× complete EDTA free protease inhibitor (Roche) and 1× PhosStop (Roche). Lysates were separated by 4-20% SDS-PAGE and transferred to PVDF membrane (GE Healthcare, Piscataway, N.J.). Membranes were blocked with 5% milk or BSA in 1×TBS with 0.1% Tween 20 for 1 hour at room temperature with shaking. Primary antibodies for ACTIN, GAPDH and FLT3 (Santa Cruz Biotechnology, Santa Cruz Calif.), P65 (Cell signaling), PRMT5 and SP1 (Millipore), H4R3, H3R8, H3 and H4 (Abcam), were diluted 1:1000 or 1:2000 in 5% milk or BSA and incubated for 1-2 hr at room temperature. Membranes were washed using 1×TBS-T, incubated with HRP-conjugated secondary antibodies diluted in 1×TBS-T with 5% milk or BSA, washed, and developed using SuperSignal West Dura Chemiluminescent Substrate (Thermo Scientific).
# [2] = target: T1, recombinant human PRMT5/MEP50 enzyme (Homo sapiens, UniProt O14744); assay: Epigenase PRMT methyltransferase (type II-specific) activity/inhibition assay kit; type: biochemical; settings: 25 ng recombinant human PRMT5/MEP50 per reaction; read-out: Inhibition of PRMT5 mediated H4R3 methylation (IC50)
# T1 construct: purchased BPS Bioscience
# Protocol: The inhibition of PRMT5 mediated H4R3 methylation result was obtained with Epigenase™ PRMT methyltransferase (type II-specific) activity/inhibition assay kit. 25 ng recombinant human PRMT5/MEP50 enzyme (purchased from BPS Bioscience) was used in each reaction.
# [3] = test system: Mantle cell lymphoma cell line Jeko; assay: MTS anti-proliferation assay; type: cell-based
# Protocol: MTS proliferation assays were performed according the CellTiter 96™ Aqueous Cell Proliferation Assay Technical Bulletin (Promega, Madison, Wis.). 5×10^5 cells were plated in each well of a 96-well plate at 37° C. and assayed for proliferation at 24, 48, and 72 hr. Proliferation signal at 50% of control was used as IC50 for growth.
# (§1) Following the synthesis of 14 compounds, the anti-proliferation and pro-apoptotic activities of those compounds was evaluated in Mantle cell lymphoma cell line Jeko. Replicate cultures of Jeko were incubated in DMSO and the compounds for 24, 48 and 72 hours. FITC-Annexin V-PI stained flow cytometry was used to detect the apoptotic population of cells (Table 4).
# [4] = target: T2, affinity-purified hSWI/SNF associated PRMT5 (Homo sapiens, UniProt O14744); assay: Histone methyltransferase assay, [3H]SAM; type: biochemical; settings: for inhibition of PRMT5 enzyme: 10 μM, FIG. 17B; for IC50: FIG. 16, 1-40 μM compound, HeLa S3 core histones, read-out: PRMT5 methylation activity IC50
# T2 construct: made in house
# Protocol: (§2) Histone methylation was performed in the presence of DMSO, and 1-40 μM inhibitor compounds. […] After 1.5 h incubation at 30° C., reaction mixtures were spotted on Whatman P-81 filter paper, washed five times with 10 mL of […] sodium carbonate buffer (pH 9.0) to remove unincorporated [3H]SAM, and methylated peptides were detected by scintillation counting.
# Type II PRMT enzymes repress gene transcription and symmetrically dimethylate H3R8 and H4R3, while type I PRMT enzymes activate gene transcription and asymmetrically dimethylate H4R3. Purified PRMT5, PRMT1, PRMT4 and PRMT7 were obtained to perform the assay.
# as §2, with “HLCL-32, HLCL-10, HLCL-61 and HLCL-64.” for “inhibitor compounds.”, “After a” for “After”, “C.” for “C.,”, “[^3H]SAM,” for “[3H]SAM,”
# recombinant PRMT1 = target: T3, recombinant PRMT1 (Rattus norvegicus, UniProt Q63009); assay: Histone methyltransferase assay, [3H]SAM; type: biochemical
# T3 construct: purchased Millipore 14-474
# Protocol: as §2
# as §2, with “HLCL-32, HLCL-10, HLCL-61 and HLCL-64.” for “inhibitor compounds.”, “After a” for “After”, “C.” for “C.,”, “[^3H]SAM,” for “[3H]SAM,”
# [5] = test system: Mantle cell lymphoma cell line Jeko; assay: Induction of apoptosis, FITC-Annexin V-PI flow cytometry; type: cell-based
# Protocol: Analysis by flow cytometry. Cell viability was also measured by flow cytometry at 24 and 48 hr using annexin-V-FITC and propidium iodide (PI) according to the manufacturer's instructions (BD Biosciences).
# as §1
# [6] = In vivo pharmacokinetics, plasma concentration; parameters: species or system Mouse; settings: for concentration at 0.08 h / concentration at 0.17 h / concentration at 0.33 h / concentration at 0.5 h / concentration at 1 h / concentration at 2 h / concentration at 4 h / concentration at 6 h / concentration at 8 h / concentration at 24 h: mouse, in vivo, read-out: Mouse plasma concentration; for concentration at 0.5 h: 0.50 h
# Excerpt: Pharmacokinetic data of compounds HLCL-7, HLCL-61, and HLCL-66 taken from an in vivo study is illustrated in Table 10. […]
# FcMCL mice = assay: FcMCL mantle cell lymphoma mouse model; type: in vivo; settings: 25 mg/kg, IP, every other day
# Protocol: (§3) Controlled shRNA depletion was evaluated in a murine lymphoma model (Eμ-BRD2 (Chung, J., et al. (2013) J. Biological Chemistry 288, 35534-35547)) and human xenograft model of glioblastoma (Yan, F., et al (2014) Cancer Research In Press). Referring to FIG. 62A, controlled expression of a PRMT5 shRNA (solid line) but not control shRNA (dashed line) leads to 100% survival of mice engrafted primary DLBCL tumor cells. […] The maximum tolerated dose (MTD, single dose) was identified at 50 mg/kg (see Table 11 below). A sub-toxic dose (25 mg/kg) was used to treat FcMCL mice. Control mice developed peripheral blood and lymph node tumor burden starting day 20 post-engraftment.
# [7] = MTD study, four mice each dose; type: in vivo
# Protocol: as §3
# [8] = 24 hr Quick MTD test, one mouse for each dose; type: in vivo; settings: one mouse
# Protocol: as §3
# [9] = incubation time not given (24, 48, 72 h tested)
# [10] = IV 5 mg/kg, Tween80 formulation
# T2 sequence (O14744 whole entry): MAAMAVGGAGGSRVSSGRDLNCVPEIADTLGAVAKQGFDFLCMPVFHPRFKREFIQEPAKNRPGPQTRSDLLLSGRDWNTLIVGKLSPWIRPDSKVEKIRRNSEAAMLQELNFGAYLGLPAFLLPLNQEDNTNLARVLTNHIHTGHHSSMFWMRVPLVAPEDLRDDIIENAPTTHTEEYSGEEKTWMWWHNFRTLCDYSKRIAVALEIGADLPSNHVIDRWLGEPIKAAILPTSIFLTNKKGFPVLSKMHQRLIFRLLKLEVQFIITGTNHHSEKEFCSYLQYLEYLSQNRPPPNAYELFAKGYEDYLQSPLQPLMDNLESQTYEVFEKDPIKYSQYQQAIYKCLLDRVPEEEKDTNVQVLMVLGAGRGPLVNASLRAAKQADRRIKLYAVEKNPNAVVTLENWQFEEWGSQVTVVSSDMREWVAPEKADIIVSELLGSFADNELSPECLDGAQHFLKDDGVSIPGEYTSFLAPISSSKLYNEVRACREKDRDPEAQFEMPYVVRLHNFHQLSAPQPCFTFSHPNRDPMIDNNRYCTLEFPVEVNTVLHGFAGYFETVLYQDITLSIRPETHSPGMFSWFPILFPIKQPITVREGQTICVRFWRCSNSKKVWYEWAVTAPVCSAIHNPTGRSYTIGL
# T2 sequence (Q9BQA1 whole entry partner): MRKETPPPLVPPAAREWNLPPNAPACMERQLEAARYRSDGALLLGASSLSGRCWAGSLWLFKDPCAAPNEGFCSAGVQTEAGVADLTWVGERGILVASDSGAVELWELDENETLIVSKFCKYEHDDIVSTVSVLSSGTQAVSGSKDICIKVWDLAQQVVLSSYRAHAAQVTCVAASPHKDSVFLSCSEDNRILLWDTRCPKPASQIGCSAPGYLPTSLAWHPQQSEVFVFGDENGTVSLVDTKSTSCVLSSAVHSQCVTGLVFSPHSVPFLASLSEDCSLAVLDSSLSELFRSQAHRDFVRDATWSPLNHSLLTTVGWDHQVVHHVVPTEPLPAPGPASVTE
# T1 sequence (O14744 2-637 limits assumed): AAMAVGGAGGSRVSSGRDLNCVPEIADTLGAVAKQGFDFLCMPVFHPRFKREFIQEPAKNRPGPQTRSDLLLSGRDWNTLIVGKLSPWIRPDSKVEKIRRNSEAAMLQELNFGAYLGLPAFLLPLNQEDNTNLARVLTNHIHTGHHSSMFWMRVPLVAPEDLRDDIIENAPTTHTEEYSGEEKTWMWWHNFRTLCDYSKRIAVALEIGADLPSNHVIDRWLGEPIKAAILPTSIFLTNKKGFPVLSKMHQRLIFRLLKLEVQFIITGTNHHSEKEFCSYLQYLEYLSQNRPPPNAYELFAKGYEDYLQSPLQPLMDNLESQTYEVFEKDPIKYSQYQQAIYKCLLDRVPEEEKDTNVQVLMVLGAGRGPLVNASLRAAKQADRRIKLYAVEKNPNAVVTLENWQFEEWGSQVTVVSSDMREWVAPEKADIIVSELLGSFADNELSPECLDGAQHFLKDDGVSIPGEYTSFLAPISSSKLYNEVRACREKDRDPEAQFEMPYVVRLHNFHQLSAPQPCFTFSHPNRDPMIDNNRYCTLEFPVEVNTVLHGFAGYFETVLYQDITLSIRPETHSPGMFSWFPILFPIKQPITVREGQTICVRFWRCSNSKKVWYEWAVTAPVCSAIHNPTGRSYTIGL
# T1 sequence (Q9BQA1 2-342 partner limits assumed): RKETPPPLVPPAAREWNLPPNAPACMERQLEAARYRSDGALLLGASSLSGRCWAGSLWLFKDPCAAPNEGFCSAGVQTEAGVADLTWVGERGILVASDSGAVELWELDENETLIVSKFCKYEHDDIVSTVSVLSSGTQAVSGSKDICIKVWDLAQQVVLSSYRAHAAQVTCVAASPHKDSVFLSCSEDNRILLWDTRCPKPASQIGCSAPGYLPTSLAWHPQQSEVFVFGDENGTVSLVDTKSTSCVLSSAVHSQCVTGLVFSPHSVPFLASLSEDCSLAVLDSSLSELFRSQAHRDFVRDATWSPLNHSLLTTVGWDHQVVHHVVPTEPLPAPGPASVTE
# T3 sequence (Q63009 whole entry): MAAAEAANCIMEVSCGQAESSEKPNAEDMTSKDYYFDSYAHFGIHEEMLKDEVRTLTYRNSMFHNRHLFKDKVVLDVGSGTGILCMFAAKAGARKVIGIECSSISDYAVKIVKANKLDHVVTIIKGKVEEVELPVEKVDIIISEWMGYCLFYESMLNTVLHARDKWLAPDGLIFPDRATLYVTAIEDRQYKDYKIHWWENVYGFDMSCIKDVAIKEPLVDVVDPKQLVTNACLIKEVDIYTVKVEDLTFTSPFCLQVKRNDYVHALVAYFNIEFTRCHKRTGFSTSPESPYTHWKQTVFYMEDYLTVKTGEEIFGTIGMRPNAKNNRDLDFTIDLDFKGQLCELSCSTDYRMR
smiles,measurement,setting,value
"CCn1c2ccccc2c2cc(CNCc3ccccn3)ccc21 [CMP5, reference compound]","potency, proliferation of multiple cell lines",multiple cell lines,low micromolar range
same,"PRMT5 driven epigenetic marks (symmetrically methylated H4(Me2)R3, H3(Me2)R8)",JeKo cells,interferes with PRMT5 driven epigenetic marks
COc1ccc(C(=O)Nc2sc3c(c2C(N)=O)CCCC3)cc1OC [FLT3 inhibitor (CALBIOCHEM #343020)],PRMT5 expression and phosphorylation levels,[1],did not change
CS(=O)(=O)c1ccc(Cn2c3ccccc3c3ccccc32)cc1 [HLCL-1],IC50,[2],> 50 µM
same,IC50,[3]; [9],> 50 µM
CCn1c2ccccc2c2cc(NC(=S)Nc3ccc(S(C)(=O)=O)cc3)ccc21 [HLCL-6],IC50,[2],> 50 µM
same,IC50,[3]; [9],> 50 µM
CCn1c2ccccc2c2cc(CNc3ccc(S(C)(=O)=O)cc3)ccc21 [HLCL-9],IC50,[2],> 50 µM
same,IC50,[3]; [9],> 50 µM
CCn1c2ccccc2c2cc(CNCc3ccc(S(C)(=O)=O)cc3)ccc21 [HLCL-10],IC50,[2],> 50 µM
same,inhibition of PRMT5 enzyme,[4],the only enzyme that is affected is PRMT5
same,IC50,[4],~5 µM
same,IC50,[3]; 24 h incubation,84 µM
same,IC50,[3]; 48 h incubation,47 µM
same,IC50,[3]; 72 h incubation,60 µM
same,inhibition of PRMT1 enzyme,"recombinant PRMT1; 10 μM, FIG. 17B",this non-specific activity is lost
same,inhibition of PRMT1 enzyme,"recombinant PRMT1; 20 μM and above, FIG. 17A",non-specific inhibition
same,EC50,[5]; 24 h,40 µM
same,EC50,[5]; 48 h,35 µM
CCn1c2ccccc2c2cc(/C=N/Nc3ccc(S(C)(=O)=O)cc3)ccc21 [HLCL-12],IC50,[2],> 50 µM
same,IC50,[3]; [9],> 50 µM
CS(=O)(=O)c1ccc(C(O)C(O)Cn2c3ccccc3c3ccccc32)cc1 (centres unmarked) [HLCL-17&20],IC50,[2],> 50 µM
same,IC50,[3]; [9],> 50 µM
CS(=O)(=O)c1ccc(NCCn2c3ccccc3c3ccccc32)cc1 [HLCL-23],IC50,[2],> 50 µM
same,IC50,[3]; [9],> 50 µM
CCn1c2ccccc2c2cc(CNc3ccc(S(N)(=O)=O)cc3)ccc21 [HLCL-32],IC50,[2],> 50 µM
same,inhibition of PRMT5 enzyme,[4],the only enzyme that is affected is PRMT5
same,IC50,[4],~5 µM
same,IC50,[3]; 24 h incubation,51 µM
same,IC50,[3]; 48 h incubation,29 µM
same,IC50,[3]; 72 h incubation,29 µM
same,inhibition of PRMT1 enzyme,"recombinant PRMT1; 10 μM, FIG. 17B",this non-specific activity is lost
same,inhibition of PRMT1 enzyme,"recombinant PRMT1; 20 μM and above, FIG. 17A",non-specific inhibition
same,EC50,[5]; 24 h,30 µM
same,EC50,[5]; 48 h,20 µM
CS(=O)(=O)c1ccc(/C=C/Cn2c3ccccc3c3ccccc32)cc1 [HLCL-63],IC50,[2],> 50 µM
same,IC50,[3]; [9],> 50 µM
CS(=O)(=O)c1ccc(/C=C\Cn2c3ccccc3c3ccccc32)cc1 [HLCL-64],IC50,[2],> 50 µM
same,inhibition of PRMT5 enzyme,[4],the only enzyme that is affected is PRMT5
same,IC50,[4],~5 µM
same,IC50,[3]; [9],> 50 µM
same,inhibition of PRMT1 enzyme,"recombinant PRMT1; 10 μM, FIG. 17B",this non-specific activity is lost
same,inhibition of PRMT1 enzyme,"recombinant PRMT1; 20 μM and above, FIG. 17A",non-specific inhibition
CCn1c2ccc(Br)cc2c2cc(CNCc3ccccc3OC)ccc21 [HLCL-65],IC50,[2],30 µM
same,peak plasma concentrations,"[6]; IV and IP routes at a dose of 25 mg/kg, FIG. 62B",8 to 20 µM
same,concentration at 0.08 h,"[6]; IP 25 mg/kg, DMSO solution",6240 nM
same,concentration at 0.17 h,"[6]; IP 25 mg/kg, DMSO solution",6270 nM
same,concentration at 0.33 h,"[6]; IP 25 mg/kg, DMSO solution",5280 nM
same,concentration at 0.5 h,"[6]; IP 25 mg/kg, DMSO solution",1660 nM
same,concentration at 1 h,"[6]; IP 25 mg/kg, DMSO solution",1590 nM
same,concentration at 2 h,"[6]; IP 25 mg/kg, DMSO solution",8450 nM
same,concentration at 4 h,"[6]; IP 25 mg/kg, DMSO solution",4510 nM
same,concentration at 6 h,"[6]; IP 25 mg/kg, DMSO solution",5480 nM
same,concentration at 8 h,"[6]; IP 25 mg/kg, DMSO solution",3710 nM
same,concentration at 24 h,"[6]; IP 25 mg/kg, DMSO solution",480 nM
same,concentration at 0.08 h,[6]; [10],2940 nM
same,concentration at 0.17 h,[6]; [10],2050 nM
same,concentration at 0.33 h,[6]; [10],2940 nM
same,concentration at 0.5 h,[6]; [10],2390 nM
same,concentration at 1 h,[6]; [10],1890 nM
same,concentration at 2 h,[6]; [10],1930 nM
same,concentration at 4 h,[6]; [10],1530 nM
same,concentration at 6 h,[6]; [10],720 nM
same,concentration at 8 h,[6]; [10],513 nM
same,concentration at 24 h,[6]; [10],29.6 nM
same,"potency, proliferation of multiple cell lines",multiple cell lines,low micromolar range
same,tumor burden in FcMCL mice,FcMCL mice; lymph node versus peripheral blood,controlling development of lymph node tumor burden but not peripheral blood FcMCL tumor burden
same,survival of FcMCL mice,FcMCL mice; preliminary experiment,improved survival
same,survival 24 hr after dosing,"[7]; IP-5 mg/kg, four mice",Alive 24 hr after
same,condition within 1 hr after dosing (alive but slow moving),"[7]; IP-50 mg/kg, four mice",Alive within 1 hr after
same,survival 24 hr after dosing,"[7]; IP-50 mg/kg, four mice",moving. Alive 24 hr
same,MTD at 24 h,"[7]; mouse, in vivo, single dose, mice, read-out: maximum tolerated dose (MTD, single dose)",50 mg/kg
same,survival after dosing,[8]; IP-50 mg/kg,Alive 24 hr after
same,clinical signs after dosing,"[8]; IP-100 mg/kg, after 24 hr",paralyzed
same,clinical signs after dosing,[8]; IP-200 mg/kg,"Paralyzed after dosing,"
same,survival after dosing,[8]; IP-200 mg/kg,dead within 1 hr
same,survival after dosing,[8]; IV-2.5 mg/kg,Dead instantly after
same,survival after dosing,[8]; IV-5 mg/kg,Alive 24 hr after
same,survival after dosing,[8]; IV-10 mg/kg,Dead instantly after
same,survival after dosing,[8]; IV-20 mg/kg,Dead instantly after
same,IC50,[3]; 24 h incubation,9 µM
same,IC50,[3]; 48 h incubation,8 µM
same,IC50,[3]; 72 h incubation,6 µM
same,EC50,[5]; 24 h,4 µM
same,EC50,[5]; 48 h,5 µM
CO[C@@H]1[C@H](N(C)C(=O)c2ccccc2)C[C@H]2O[C@]1(C)n1c3ccccc3c3c4c(c5c6ccccc6n2c5c31)C(=O)NC4 [PKC412],PRMT5 expression and phosphorylation levels,[1],did not change
